Activity calls are given as the source filed them. The rule behind the calls is not given here.
Experiments:
[1] = system: Pseudomonas aeruginosa; experiment: Synergistic antibacterial activity against Pseudomonas aeruginosa PAO1 assessed as fold change in eravacycline MIC by checkerboard analysis relative to eravacycline alone; type: functional
[2] = system: Pseudomonas aeruginosa; experiment: Antibacterial activity against Pseudomonas aeruginosa PA262 assessed as inhibition of visible bacterial growth by CLSI based broth-microdilution method; type: functional
[3] = system: Pseudomonas aeruginosa; experiment: Antibacterial activity against Pseudomonas aeruginosa PA264 assessed as inhibition of visible bacterial growth by CLSI based broth-microdilution method; type: functional
[4] = system: Pseudomonas aeruginosa; experiment: Antibacterial activity against Pseudomonas aeruginosa PA114228 assessed as inhibition of visible bacterial growth by CLSI based broth-microdilution method; type: functional
[5] = system: Pseudomonas aeruginosa; experiment: Antibacterial activity against Pseudomonas aeruginosa PA095 assessed as inhibition of visible bacterial growth by CLSI based broth-microdilution method; type: functional
[6] = system: Pseudomonas aeruginosa; experiment: Synergistic antibacterial activity against Pseudomonas aeruginosa PA259 in presence of tigecycline by checkerboard assay; type: functional
[7] = system: Pseudomonas aeruginosa; experiment: Synergistic antibacterial activity against Pseudomonas aeruginosa PA259 in presence of eravacycline by checkerboard assay; type: functional
[8] = system: Pseudomonas aeruginosa; experiment: Synergistic antibacterial activity against Pseudomonas aeruginosa PA262 in presence of eravacycline by checkerboard assay; type: functional
[9] = system: Pseudomonas aeruginosa; experiment: Synergistic antibacterial activity against Pseudomonas aeruginosa PA264 in presence of doxycycline by checkerboard assay; type: functional
[10] = system: Pseudomonas aeruginosa; experiment: Synergistic antibacterial activity against Pseudomonas aeruginosa PA264 in presence of tigecycline by checkerboard assay; type: functional
[11] = system: Pseudomonas aeruginosa; experiment: Synergistic antibacterial activity against Pseudomonas aeruginosa PA101243 in presence of tigecycline by checkerboard assay; type: functional
[12] = system: Pseudomonas aeruginosa; experiment: Synergistic antibacterial activity against Pseudomonas aeruginosa PA200 in presence of tigecycline by checkerboard assay; type: functional
[13] = system: Pseudomonas aeruginosa; experiment: Antibacterial activity against Pseudomonas aeruginosa PA262 assessed as tigecycline MIC by CLSI based broth-microdilution method; type: functional
[14] = system: Pseudomonas aeruginosa; experiment: Antibacterial activity against Pseudomonas aeruginosa PA262 assessed as eravacycline MIC by CLSI based broth-microdilution method; type: functional
[15] = system: Pseudomonas aeruginosa; experiment: Antibacterial activity against Pseudomonas aeruginosa PA264 assessed as minocycline MIC by CLSI based broth-microdilution method; type: functional
[16] = system: Pseudomonas aeruginosa; experiment: Antibacterial activity against Pseudomonas aeruginosa PA264 assessed as tigecycline MIC by CLSI based broth-microdilution method; type: functional
[17] = system: Pseudomonas aeruginosa; experiment: Antibacterial activity against Pseudomonas aeruginosa PA100036 assessed as minocycline MIC by CLSI based broth-microdilution method; type: functional
[18] = system: Pseudomonas aeruginosa; experiment: Antibacterial activity against Pseudomonas aeruginosa PA100036 assessed as tigecycline MIC by CLSI based broth-microdilution method; type: functional
[19] = system: Pseudomonas aeruginosa; experiment: Antibacterial activity against Pseudomonas aeruginosa PA100036 assessed as eravacycline MIC by CLSI based broth-microdilution method; type: functional
[20] = system: Pseudomonas aeruginosa; experiment: Antibacterial activity against Pseudomonas aeruginosa PA095 assessed as doxycycline MIC by CLSI based broth-microdilution method; type: functional
[21] = system: Pseudomonas aeruginosa; experiment: Antibacterial activity against Pseudomonas aeruginosa PA095 assessed as eravacycline MIC by CLSI based broth-microdilution method; type: functional
[22] = system: Pseudomonas aeruginosa; experiment: Antibacterial activity against Pseudomonas aeruginosa PA200 assessed as eravacycline MIC by CLSI based broth-microdilution method; type: functional
[23] = system: Pseudomonas aeruginosa; experiment: Synergistic antibacterial activity against Pseudomonas aeruginosa PA259 assessed as fractional inhibitory concentration index in presence of doxycycline by checkerboard assay; type: functional
[24] = system: Pseudomonas aeruginosa; experiment: Synergistic antibacterial activity against Pseudomonas aeruginosa PA262 assessed as fractional inhibitory concentration index in presence of minocycline by checkerboard assay; type: functional
[25] = system: Pseudomonas aeruginosa; experiment: Synergistic antibacterial activity against Pseudomonas aeruginosa PA262 assessed as fractional inhibitory concentration index in presence of doxycycline by checkerboard assay; type: functional
[26] = system: Pseudomonas aeruginosa; experiment: Synergistic antibacterial activity against Pseudomonas aeruginosa PA264 assessed as fractional inhibitory concentration index in presence of eravacycline by checkerboard assay; type: functional
[27] = system: Pseudomonas aeruginosa; experiment: Synergistic antibacterial activity against Pseudomonas aeruginosa PA100036 assessed as fractional inhibitory concentration index in presence of minocycline by checkerboard assay; type: functional
[28] = system: Pseudomonas aeruginosa; experiment: Synergistic antibacterial activity against Pseudomonas aeruginosa PA100036 assessed as fractional inhibitory concentration index in presence of eravacycline by checkerboard assay; type: functional
[29] = system: Pseudomonas aeruginosa; experiment: Synergistic antibacterial activity against Pseudomonas aeruginosa PA114228 assessed as fractional inhibitory concentration index in presence of minocycline by checkerboard assay; type: functional
[30] = system: Pseudomonas aeruginosa; experiment: Synergistic antibacterial activity against Pseudomonas aeruginosa PA114228 assessed as fractional inhibitory concentration index in presence of eravacycline by checkerboard assay; type: functional
[31] = system: Pseudomonas aeruginosa; experiment: Synergistic antibacterial activity against Pseudomonas aeruginosa PA101243 assessed as fractional inhibitory concentration index in presence of eravacycline by checkerboard assay; type: functional
[32] = system: Pseudomonas aeruginosa; experiment: Synergistic antibacterial activity against Pseudomonas aeruginosa PA095 assessed as fractional inhibitory concentration index in presence of minocycline by checkerboard assay; type: functional
[33] = system: Pseudomonas aeruginosa; experiment: Synergistic antibacterial activity against Pseudomonas aeruginosa PA095 assessed as fractional inhibitory concentration index in presence of eravacycline by checkerboard assay; type: functional
[34] = system: Pseudomonas aeruginosa; experiment: Synergistic antibacterial activity against Pseudomonas aeruginosa PA200 assessed as fractional inhibitory concentration index in presence of doxycycline by checkerboard assay; type: functional
[35] = system: Pseudomonas aeruginosa; experiment: Synergistic antibacterial activity against Pseudomonas aeruginosa PA200 assessed as fractional inhibitory concentration index in presence of eravacycline by checkerboard assay; type: functional
[36] = system: Pseudomonas aeruginosa; experiment: Synergistic antibacterial activity against Pseudomonas aeruginosa PA259 assessed as fold change in tigecycline MIC by CLSI based broth-microdilution method relative to tigecycline alone; type: functional
[37] = system: Pseudomonas aeruginosa; experiment: Synergistic antibacterial activity against Pseudomonas aeruginosa PA259 assessed as fold change in eravacycline MIC by CLSI based broth-microdilution method relative to eravacycline alone; type: functional
[38] = system: Pseudomonas aeruginosa; experiment: Synergistic antibacterial activity against Pseudomonas aeruginosa PA264 assessed as fold change in doxycycline MIC by CLSI based broth-microdilution method relative to doxycycline alone; type: functional
[39] = system: Pseudomonas aeruginosa; experiment: Synergistic antibacterial activity against Pseudomonas aeruginosa PA114228 assessed as fold change in minocycline MIC by CLSI based broth-microdilution method relative to minocycline alone; type: functional
[40] = system: Pseudomonas aeruginosa; experiment: Synergistic antibacterial activity against Pseudomonas aeruginosa PA101243 assessed as fold change in minocycline MIC by CLSI based broth-microdilution method relative to minocycline alone; type: functional
[41] = system: Pseudomonas aeruginosa; experiment: Synergistic antibacterial activity against Pseudomonas aeruginosa PA095 assessed as fold change in minocycline MIC by CLSI based broth-microdilution method relative to minocycline alone; type: functional
[42] = system: Pseudomonas aeruginosa; experiment: Synergistic antibacterial activity against Pseudomonas aeruginosa PA095 assessed as fold change in tigecycline MIC by CLSI based broth-microdilution method relative to tigecycline alone; type: functional
[43] = system: Pseudomonas aeruginosa; experiment: Synergistic antibacterial activity against Pseudomonas aeruginosa PA200 assessed as fold change in doxycycline MIC by CLSI based broth-microdilution method relative to doxycycline alone; type: functional
[44] = system: Pseudomonas aeruginosa; experiment: Antibacterial activity against Pseudomonas aeruginosa PAO1 assessed as inhibition of bacterial growth by measuring fold change in MIC in presence of 50 % fetal bovine serum by CLSI protocol based assay; type: functional
[45] = system: Pseudomonas aeruginosa; experiment: Antibacterial activity against Pseudomonas aeruginosa PA259 assessed as reduction in bacterial load by time kill assay; type: functional, organism-based
[46] = system: Pseudomonas aeruginosa; experiment: Antibacterial activity against Pseudomonas aeruginosa PA264 assessed as increase in bacterial load incubated for 2 hrs in presence of eravacycline by time kill assay; type: functional, organism-based

- MIC [2]: > 128 µg/mL
- MIC [3]: > 128 µg/mL
- MIC [4]: > 128 µg/mL
- MIC [5]: 8 µg/mL
- MIC [6]: 8 µg/mL
- MIC [7]: 8 µg/mL
- MIC [8]: 8 µg/mL
- MIC [9]: 8 µg/mL
- MIC [10]: 8 µg/mL
- MIC [11]: 8 µg/mL
- MIC [12]: 8 µg/mL
- MIC [13]: 2 µg/mL
- MIC [14]: 1 µg/mL
- MIC [15]: 0.5 µg/mL
- MIC [16]: 0.5 µg/mL
- MIC [17]: 0.25 µg/mL
- MIC [18]: 0.5 µg/mL
- MIC [19]: 0.125 µg/mL
- MIC [20]: 4 µg/mL
- MIC [21]: 1 µg/mL
- MIC [22]: 0.031 µg/mL
SMILES: Cl.Cl.Cl.Cl.Cl.Cl.NC[C@H]1O[C@H](O[C@H]2[C@H](OCCCCCCCCCCCCNC(=O)c3cn(C4CC4)c4cc(N5CCNCC5)c(F)cc4c3=O)[C@@H](O[C@H]3O[C@H](CO)[C@@H](O)[C@H](N)[C@H]3O)[C@H](N)C[C@@H]2N)[C@H](N)C[C@@H]1O
- fold change (FC) [1]: 64
- fractional inhibitory concentration index (FICI) [23]: 0.008
- fractional inhibitory concentration index (FICI) [24]: 0.008
- fractional inhibitory concentration index (FICI) [25]: 0.002
- fractional inhibitory concentration index (FICI) [26]: 0.008
- fractional inhibitory concentration index (FICI) [27]: 0.015
- fractional inhibitory concentration index (FICI) [28]: 0.008
- fractional inhibitory concentration index (FICI) [29]: 0.008
- fractional inhibitory concentration index (FICI) [30]: 0.5
- fractional inhibitory concentration index (FICI) [31]: 0.625
- fractional inhibitory concentration index (FICI) [32]: 0.5
- fractional inhibitory concentration index (FICI) [33]: 0.265
- fractional inhibitory concentration index (FICI) [34]: 0.257
- fractional inhibitory concentration index (FICI) [35]: 0.156
- fold change (FC) [36]: 128
- fold change (FC) [37]: 512
- fold change (FC) [38]: 16
- fold change (FC) [39]: 512
- fold change (FC) [40]: 4
- fold change (FC) [41]: 8
- fold change (FC) [42]: 2
- fold change (FC) [43]: 64
- fold change (FC) [44]: 1
- AC30 [45]: Active
- Activity [46]: Active

From ChEMBL document CHEMBL6078622, “Enhancing outer membrane permeability of tetracycline antibiotics in P. aeruginosa using TOB-CIP conjugates” (RSC Med Chem, 2024)
